Data on 6 compounds can be found in PubChem BioAssay (NCI).

What all share (test): NCI anticancer screen, dose series, 48 h
For assay [1], the system named is A549 NSCLC.
Assay [2] concerns ACHN renal.
The subject of assay [3] is CAKI-1 renal.
Assay [4] relates to HOP-92 NSCLC.
Assay [5] relates to KM12 colon.
The subject of assay [6] is LOX IMVI melanoma.
Assay [7] relates to RXF 393 renal.
Assay [8] concerns SNB-75 CNS.
Assay [9] concerns U251 CNS.
The test system of assay [10] is UACC-257 melanoma.

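48-hour exposure; five concentrations; linearly interpolated endpoints. The concentration for 50% growth inhibition is given as GI50. The concentration for full growth arrest is given as TGI.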

As for `O=[N+]([O-])c1cc[n+]([O-])c2ccccc12`, the GI50 in assay [1] was 149 nM; in [2] it was 142 nM; in assay [3], 307 nM; in assay [4], 130 nM; in [5], 83.2 nM; in [6], 156 nM. Further, the GI50 is 211 nM in [7], 176 nM in assay [8], 298 nM in [9] and 229 nM in assay [10]. Further, the TGI was 584 nM in assay [1]; 512 nM in assay [2]; 937 nM in assay [3]; 758 nM in [4]; 332 nM in assay [5]; 418 nM in [6]. Also, the TGI stood at 619 nM in assay [7], 465 nM in [8], 1300 nM in assay [9] and 770 nM in assay [10].

In the case of `O=C(CCN1CCCC1)Nc1ccc2c(NCc3ccccc3)c3ccccc3nc2c1`, the GI50 was 352 nM in assay [1]; 465 nM in assay [2]; 1530 nM in [3]; 348 nM in assay [4]; 439 nM in [5]; 328 nM in [6]. Further, the GI50 in assay [7] was 349 nM; in assay [8], 398 nM; in [9] it was 395 nM; in [10] it was 1450 nM. Also, the TGI amounted to 1680 nM in assay [1]; 2220 nM in [2]; 6180 nM in assay [3]; 2190 nM in assay [4]; 1850 nM in assay [5]; 1310 nM in assay [6]. Further, the TGI in [7] amounted to 1380 nM; in assay [8], 1700 nM; in assay [9], 1730 nM; in assay [10], 3300 nM.

For the compound `O=C(/C=C(\O)C(=O)O)/C=C(\O)c1ccccc1`, the GI50 in assay [1], in [2], in assay [4], in [6], in [8] and in [9] was over 1000 nM each time. For the same compound, the GI50 in [10] is over 1000 nM. Further, the TGI in [1] was over 100000 nM; in [2], over 100000 nM; in assay [3] it was over 100000 nM; in assay [4] it was over 1000 nM; in assay [5], over 100000 nM; in assay [6], over 100000 nM. Moreover, the TGI in assay [7] was over 100000 nM; in [8], over 54900 nM; in assay [9], over 100000 nM; in assay [10] it was over 100000 nM.

With `COc1cc2c3c(n(CCCN)c(=O)c2cc1OC)-c1ccc([N+](=O)[O-])cc1C3=O`, the GI50 was 9880 nM in [1]; 5200 nM in [2]; 4700 nM in [3]; 10500 nM in assay [4]; 14600 nM in assay [5]; 2280 nM in assay [6]. Also, the GI50 is 19200 nM in [7], 16300 nM in assay [8], 4940 nM in assay [9] and 31000 nM in [10]. Moreover, the TGI was 34700 nM in [1]; 16700 nM in assay [2]; 19400 nM in [3]; 30500 nM in assay [4]; 31000 nM in assay [5]; 16600 nM in assay [6]. The TGI in [7] was 43700 nM; in assay [8] it was 34700 nM; in assay [9], 19800 nM; in [10], over 100000 nM.

As to `COc1ccc(C(=O)Cn2c(C(=O)c3ccccc3)nc3ccccc32)cc1`, the GI50 in assay [1] is 6050 nM; in assay [2] it was 6230 nM; in assay [3], over 100000 nM; in [4] it was over 100000 nM; in assay [5], 1640 nM; in assay [6] it was 5180 nM. Further, the GI50 was 2380 nM in assay [7], 4610 nM in assay [8], 3620 nM in [9] and over 100000 nM in assay [10]. Besides, the TGI in assay [1], in assay [2], in [3], in assay [4], in assay [5] and in assay [6] was over 100000 nM in each case. The TGI in [7] was over 22200 nM; in assay [8] it was over 100000 nM; in assay [9] it was over 100000 nM; in assay [10], over 100000 nM.

As for `O=c1c2c([nH]c3nccn13)CCC2`, the TGI in assay [1], in assay [2], in [3], in [4], in assay [5] and in assay [6] was over 10000 nM each time. Further, the TGI in assay [7], in assay [8], in assay [9] and in assay [10] was over 10000 nM throughout.
